According to patent US10787452B2 (Vertex Pharmaceuticals Incorporated, priority 2012, dated 2020):

Tested on: HCT116 colorectal cancer cells
Assay: Cisplatin sensitization assay (96 h cell viability MTS);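 note: compound concentration needed to lower the Cisplatin-alone IC50 by a set fold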
Format: cell-based
Settings: 96 h MTS, compound plus Cisplatin
Description: Compounds can be screened for their ability to sensitize HCT116 colorectal cancer cells to Cisplatin using a 96 h cell viability (MTS) assay. […] Compounds and Cisplatin are then both added simultaneously to the cell media in 2-fold serial dilutions from a top final concentration of 10 μM as a full matrix of concentrations in a final cell volume of 200 μl, and the cells are then incubated at 37° C. in 5% CO2. After 96 h, 40 μl of MTS reagent (Promega G358a) is added to each well and the cells are incubated for 1 h at 37° C. in 5% CO2.

Nc1nn2cc(Cl)cnc2c1C(=O)Nc1cnccc1OC1CN2CCC1CC2 (centres unmarked) [I-O-62, 2-amino-6-chloro-N-(4-(quinuclidin-3-yloxy)pyridin-3-yl)pyrazolo[1,5-a]pyrimidine-3-carboxamide]
Cisplatin Sensitization Assay: +++ (Compounds with a Cisplatin sensitization value of <0.02 μM are marked with “+++.”)

CN1CCc2c(cncc2NC(=O)c2c(N)nn3cc(F)cnc23)C1 [I-C-8, 2-amino-6-fluoro-N-(7-methyl-5,6,7,8-tetrahydro-2,7-naphthyridin-4-yl)pyrazolo[1,5-a]pyrimidine-3-carboxamide]
Cisplatin Sensitization Assay: + (Compounds with a Cisplatin sensitization value >0.2 μM but <5 μM are marked with “+.”)

CN1CCN(C2CCN(c3c(F)cncc3NC(=O)c3c(N)nn4cc(F)cnc34)CC2)C(=O)C1 [I-N-151, 2-amino-6-fluoro-N-(5-fluoro-4-(4-(4-methyl-2-oxopiperazin-1-yl)piperidin-1-yl)pyridin-3-yl)pyrazolo[1,5-a]pyrimidine-3-carboxamide]
Cisplatin Sensitization Assay: + (Compounds with a Cisplatin sensitization value >0.2 μM but <5 μM are marked with “+.”)

CN1CCC(C(=O)N2CCN(c3c(F)cncc3NC(=O)c3c(N)nn4cc(F)cnc34)CC2)C1 (centres unmarked) [I-N-156, 2-amino-6-fluoro-N-(5-fluoro-4-(4-(1-methylpyrrolidine-3-carbonyl)piperazin-1-yl)pyridin-3-yl)pyrazolo[1,5-a]pyrimidine-3-carboxamide]
Cisplatin Sensitization Assay: +++ (Compounds with a Cisplatin sensitization value of <0.02 μM are marked with “+++.”)

Nc1nn2cc(Cl)cnc2c1C(=O)Nc1cnccc1O[C@H]1CCCNC1 [I-O-74, (S)-2-amino-6-chloro-N-(4-(piperidin-3-yloxy)pyridin-3-yl)pyrazolo[1,5-a]pyrimidine-3-carboxamide]
Cisplatin Sensitization Assay: ++ (Compounds with a Cisplatin sensitization value >0.02 μM but <0.2 μM are marked with “++.”)

Nc1nn2cc(F)cnc2c1C(=O)Nc1cncc(F)c1N1CCC(S(=O)(=O)N2CCN3CCC2CC3)CC1 [I-N-273, N-(4-(4-(1,4-diazabicyclo[3.2.2]nonan-4-ylsulfonyl)piperidin-1-yl)-5-fluoropyridin-3-yl)-2-amino-6-fluoropyrazolo[1,5-a]pyrimidine-3-carboxamide]
Cisplatin Sensitization Assay: +++ (Compounds with a Cisplatin sensitization value of <0.02 μM are marked with “+++.”)

CN1CCN(c2ccncc2NC(=O)c2c(N)nn3cc(CC#N)cnc23)CC1 [I-N-82, 2-amino-6-(cyanomethyl)-N-(4-(4-methylpiperazin-1-yl)pyridin-3-yl)pyrazolo[1,5-a]pyrimidine-3-carboxamide]
Cisplatin Sensitization Assay: ++ (Compounds with a Cisplatin sensitization value >0.02 μM but <0.2 μM are marked with “++.”)

CN(C)C(=O)C1CCN(c2c(F)cncc2NC(=O)c2c(N)nn3cc(F)cnc23)CC1 [I-G-29, 2-amino-N-(4-(4-(dimethylcarbamoyl)piperidin-1-yl)-5-fluoropyridin-3-yl)-6-fluoropyrazolo[1,5-a]pyrimidine-3-carboxamide]
Cisplatin Sensitization Assay: +++ (Compounds with a Cisplatin sensitization value of <0.02 μM are marked with “+++.”)

Nc1nn2cc(F)cnc2c1C(=O)Nc1cncc(F)c1N1CCN(C(=O)C2CN3CCC2CC3)CC1 (centres unmarked) [I-N-130, 2-amino-6-fluoro-N-(5-fluoro-4-(4-(quinuclidine-3-carbonyl)piperazin-1-yl)pyridin-3-yl)pyrazolo[1,5-a]pyrimidine-3-carboxamide]
Cisplatin Sensitization Assay: ++ (Compounds with a Cisplatin sensitization value >0.02 μM but <0.2 μM are marked with “++.”)

CN(C)C1CCN(c2ccncc2NC(=O)c2c(N)nn3cc(Cl)cnc23)CC1 [I-N-37, 2-amino-6-chloro-N-(4-(4-(dimethylamino)piperidin-1-yl)pyridin-3-yl)pyrazolo[1,5-a]pyrimidine-3-carboxamide]
Cisplatin Sensitization Assay: ++ (Compounds with a Cisplatin sensitization value >0.02 μM but <0.2 μM are marked with “++.”)

Nc1nn2cc(F)cnc2c1C(=O)Nc1cncc(Cl)c1N1CCC(C(=O)N2CCN3CCC2C3)CC1 (centres unmarked) [I-G-69, N-(4-(4-(1,4-diazabicyclo[3.2.1]octane-4-carbonyl)piperidin-1-yl)-5-chloropyridin-3-yl)-2-amino-6-fluoropyrazolo[1,5-a]pyrimidine-3-carboxamide]
Cisplatin Sensitization Assay: +++ (Compounds with a Cisplatin sensitization value of <0.02 μM are marked with “+++.”)

Nc1nn2cc(F)cnc2c1C(=O)Nc1cnccc1-n1cccn1 [I-N-26, N-(4-(1H-pyrazol-1-yl)pyridin-3-yl)-2-amino-6-fluoropyrazolo[1,5-a]pyrimidine-3-carboxamide]
Cisplatin Sensitization Assay: + (Compounds with a Cisplatin sensitization value >0.2 μM but <5 μM are marked with “+.”)

COC1(C)CN(C(=O)C2CCN(c3ccncc3NC(=O)c3c(N)nn4cc(F)cnc34)CC2)C1 [I-G-79, 2-amino-6-fluoro-N-(4-(4-(3-methoxy-3-methylazetidine-1-carbonyl)piperidin-1-yl)pyridin-3-yl)pyrazolo[1,5-a]pyrimidine-3-carboxamide]
Cisplatin Sensitization Assay: +++ (Compounds with a Cisplatin sensitization value of <0.02 μM are marked with “+++.”)

CN(C)CCCN(C)C(=O)C1CCN(c2c(F)cncc2NC(=O)c2c(N)nn3cc(F)cnc23)CC1 [I-G-16, 2-amino-N-(4-(4-((3-(dimethylamino)propyl)(methyl)carbamoyl)piperidin-1-yl)-5-fluoropyridin-3-yl)-6-fluoropyrazolo[1,5-a]pyrimidine-3-carboxamide]
Cisplatin Sensitization Assay: +++ (Compounds with a Cisplatin sensitization value of <0.02 μM are marked with “+++.”)

Nc1nn2cc(F)cnc2c1C(=O)Nc1cnccc1-c1ccccn1 [I-C-60, N-([2,4′-bipyridin]-3′-yl)-2-amino-6-fluoropyrazolo[1,5-a]pyrimidine-3-carboxamide]
Cisplatin Sensitization Assay: ++ (Compounds with a Cisplatin sensitization value >0.02 μM but <0.2 μM are marked with “++.”)

COc1ccncc1NC(=O)c1c(N)nn2cc(C(C)C#N)cnc12 (centres unmarked) [I-O-21, 2-amino-6-(1-cyanoethyl)-N-(4-methoxypyridin-3-yl)pyrazolo[1,5-a]pyrimidine-3-carboxamide]
Cisplatin Sensitization Assay: ++ (Compounds with a Cisplatin sensitization value >0.02 μM but <0.2 μM are marked with “++.”)

N#CCc1cnc2c(C(=O)Nc3cnccc3N3CCCCCC3)c(N)nn2c1 [I-N-79, 2-amino-N-(4-(azepan-1-yl)pyridin-3-yl)-6-(cyanomethyl)pyrazolo[1,5-a]pyrimidine-3-carboxamide]
Cisplatin Sensitization Assay: ++ (Compounds with a Cisplatin sensitization value >0.02 μM but <0.2 μM are marked with “++.”)

CN1CCN(C(=O)[C@H]2CC[C@@H](Oc3ccncc3NC(=O)c3c(N)nn4cc(F)cnc34)CC2)CC1 [I-O-19]
Cisplatin Sensitization Assay: +++ (Compounds with a Cisplatin sensitization value of <0.02 μM are marked with “+++.”)

COCCN1CCN(c2ccncc2NC(=O)c2c(N)nn3cc(Cl)cnc23)CC1 [I-N-60, 2-amino-6-chloro-N-(4-(4-(2-methoxyethyl)piperazin-1-yl)pyridin-3-yl)pyrazolo[1,5-a]pyrimidine-3-carboxamide]
Cisplatin Sensitization Assay: +++ (Compounds with a Cisplatin sensitization value of <0.02 μM are marked with “+++.”)

Nc1nn2cc(F)cnc2c1C(=O)Nc1cncc(F)c1N1CCN(C(=O)C2CC2)CC1 [I-N-276, 2-amino-N-(4-(4-(cyclopropanecarbonyl)piperazin-1-yl)-5-fluoropyridin-3-yl)-6-fluoropyrazolo[1,5-a]pyrimidine-3-carboxamide]
Cisplatin Sensitization Assay: +++ (Compounds with a Cisplatin sensitization value of <0.02 μM are marked with “+++.”)

Nc1nn2cc(F)cnc2c1C(=O)Nc1cnccc1O[C@H]1CCCN(C2COC2)C1 [I-O-9, (S)-2-amino-6-fluoro-N-(4-((1-(oxetan-3-yl)piperidin-3-yl)oxy)pyridin-3-yl)pyrazolo[1,5-a]pyrimidine-3-carboxamide]
Cisplatin Sensitization Assay: ++ (Compounds with a Cisplatin sensitization value >0.02 μM but <0.2 μM are marked with “++.”)

Nc1nn2cc(F)cnc2c1C(=O)Nc1cnccc1-c1ccc(C(=O)N2CCN(C3COC3)CC2)cc1F [I-C-51, 2-amino-6-fluoro-N-(4-(2-fluoro-4-(4-(oxetan-3-yl)piperazine-1-carbonyl)phenyl)pyridin-3-yl)pyrazolo[1,5-a]pyrimidine-3-carboxamide]
Cisplatin Sensitization Assay: ++ (Compounds with a Cisplatin sensitization value >0.02 μM but <0.2 μM are marked with “++.”)

Nc1nn2cc(F)cnc2c1C(=O)Nc1cncc(F)c1N1CCC(n2ccnc2)CC1 [I-N-288, N-(4-(4-(1H-imidazol-1-yl)piperidin-1-yl)-5-fluoropyridin-3-yl)-2-amino-6-fluoropyrazolo[1,5-a]pyrimidine-3-carboxamide]
Cisplatin Sensitization Assay: +++ (Compounds with a Cisplatin sensitization value of <0.02 μM are marked with “+++.”)

CC(C)(O)C1CCN(c2ccncc2NC(=O)c2c(N)nn3cc(Cl)cnc23)CC1 [I-N-69, 2-amino-6-chloro-N-(4-(4-(2-hydroxypropan-2-yl)piperidin-1-yl)pyridin-3-yl)pyrazolo[1,5-a]pyrimidine-3-carboxamide]
Cisplatin Sensitization Assay: +++ (Compounds with a Cisplatin sensitization value of <0.02 μM are marked with “+++.”)

Nc1nn2cc(F)cnc2c1C(=O)Nc1cncc(F)c1N1CCC(C(=O)N2CCC(N3CCCC3)CC2)CC1 [I-G-59, 2-amino-6-fluoro-N-(5-fluoro-4-(4-(4-(pyrrolidin-1-yl)piperidine-1-carbonyl)piperidin-1-yl)pyridin-3-yl)pyrazolo[1,5-a]pyrimidine-3-carboxamide]
Cisplatin Sensitization Assay: +++ (Compounds with a Cisplatin sensitization value of <0.02 μM are marked with “+++.”)

N#CCc1cnc2c(C(=O)Nc3cnccc3O[C@H]3CCNC3)c(N)nn2c1 [I-O-86, (S)-2-amino-6-(cyanomethyl)-N-(4-(pyrrolidin-3-yloxy)pyridin-3-yl)pyrazolo[1,5-a]pyrimidine-3-carboxamide]
Cisplatin Sensitization Assay: ++ (Compounds with a Cisplatin sensitization value >0.02 μM but <0.2 μM are marked with “++.”)
